Assay results as given in US12453725B2, “Treatment of inflammatory disease” (Celleron Therapeutics Limited, priority 2019, dated 2025).

Experiments:
colon26 cells = assay: RNAseq, colon26 cells in vitro; format: cell-based, mouse
Text: The RNAseq data was aligned to the reference M. musculus genome (mm10) with STAR aligner and analysed for differential expression. […] We further evaluated transcripts identified in the colon26 RNAseq at the single gene level, focusing on murine genes which are homologues of the immune-related genes identified in human SW620 cells, which included genes in the murine MHC H2 complex. A number of H2 genes including class I and class II genes were induced including H2-D1, DMA, DMB1 and EB1 (FIG. 6).
SW620 cells were seeded into 6-well plates and left to adhere overnight. Cells were treated with 1 μM, 10 μM of CXD101 for 48 h. CT26 cells were seeded onto 100 mm plates and treated with 2.7 μM and 10 μM CXD101 for 72 h. After treatment cells were harvested and total RNA extracted by means of Promega ReliaPrep™ RNA Cell Miniprep System (Promega, USA). RNA was dissolved in RNAse free water and stored in −80° C. for future analysis. RNA concentration was measured by NanoDrop 2000 (Thermo Fisher Scientific, USA). Samples were qualified for library preparation if […]. Library preparation with poly (A) enrichment was performed by BGI.

colon26 tumours = assay: Immunohistochemistry of colon26 tumour sections; format: in vivo, Balb/c mice
Protocol: Tumours were harvested, embedded in paraffin blocks and cut into 5 μm sections. Antigen retrieval was achieved by incubating in sodium citrate. Sections were incubated with primary antibodies: anti-H3Ack9 (ab10812, abcam), anti-CD8 (ab203035, abcam), anti-CD4 (ab183685, abcam), anti-CD68 (GR300628, abcam), anti-CD163 (GR3232711, abcam and, anti-FoxP3 (14208S, New England Biolabs) and further stained with anti-rabbit secondary antibody (VECTASTAIN Elite ABC HRP Kit, Vector Laboratories Inc, USA) according to the manufacturer protocol. Signal was detected by DAB (3, 3-diaminobenzidine, Vector Laboratories Inc, USA) and sections were counterstained with haematoxylin (Hematoxylin solution Mayer's; pH 2.4, Merck Group, Germany). Pictures were taken using Leica DM2500 optical microscope (Leica Microsystems, Germany) and the signal was semi-quantified by means of ImageJ Fiji software (National Institutes of Health, USA, doi:10.1038/nmeth.2019).

HDAC Class 1l = assay: HDAC Class II inhibition; format: biochemical; settings: stated as no activity; read-out: activity against HDAC Class 1l
[1] = Phase Ib/II clinical trial CTL-101-023, CXD101 with nivolumab, safety; format: in vivo, human; settings: study CTL-101-023
Protocol: A clinical trial was conducted involving 55 subjects. The clinical trial protocol is summarized below: • Protocol Number: CTL-101-023 • Investigational Product: CXD101 and nivolumab Active Ingredient(s)/INN: • CXD101 or N-(2-aminophenyl)-4-(1-[(1,3-dimethyl-1H-pyrazol-4yl) methyl]piperidin-4-yl)benzamide is a Class I-selective histone deacetylase (HDAC) inhibitor. • Nivolumab is a programmed death receptor-1 (PD-1)-blocking antibody. […] 2. […] Subjects may continue to receive CXD101/nivolumab until complete response, disease progression, unacceptable toxicity, withdrawal of consent, or other medical problems supervene. • Efficacy will be measured using Immune Response Evaluation Criteria in Solid Tumours (iRECIST) Imaging studies, typically CT scan of chest, abdomen & pelvis, supplemented by MRI of liver when required, will be performed at Baseline and after every 6 weeks, with objective confirmation of response 6 weeks (+/−1 week) after observation. • Safety parameters will be assessed as in the Phase I study. […]

[2] = colon26 in vitro, log 2 FC >1, FDR 1%
[3] = out of 1142 differentially expressed genes
[4] = relative to untreated control animals

Cc1nn(C)cc1CN1CCC(c2ccc(C(=O)Nc3ccccc3N)cc2)CC1 [CXD101, N-(2-aminophenyl)-4-(1-[(1,3-dimethyl-1H-pyrazol-4-yl)methyl]piperidin-4-yl)benzamide]
number of DEGs in vitro (colon26 cells; colon26 cells): 2502 | genes down-regulated (colon26 cells; [2]): 611 | genes up-regulated (colon26 cells; [2]): 1891 | immune-related DEGs, Immunome database (colon26 cells; [3]): 15% | immune-related DEGs, Import database (colon26 cells; [3]): 34% | immune-related DEGs, immunogenicity database (colon26 cells; [3]): 36% | CD68 macrophages (colon26 tumours; compared to untreated animals): reduced | CD163 macrophages (colon26 tumours; compared to untreated animals): reduced | change in Tregs (FoxP3) (colon26 tumours; mouse, in vivo): quite modest | level of CD4 lymphocytes in tumour (colon26 tumours; [4]): significant increase | level of CD8 lymphocytes in tumour (colon26 tumours; [4]): significant increase | nuclear H3K9 acetylation (colon26 tumours; treated vs untreated animals): increased levels | IC50 (HDAC Class 1l): ≥ 2.5 µM | neutropenia due to myelosuppression [1]: varying degrees of neutropenia
